Measurements taken from patent publication US20140243243A1, “DEVICE AND METHOD FOR CELL-EXCLUSION PATTERNING” (Corning Incorporated, priority 2012, published 2014).

Tested on: cells growing in a cell-exclusion patterned cell culture
Assay: Cell-exclusion patterned cell culture in the presence and absence of a drug (cell proliferation and migration)
Format: cell-based
Conditions: uncoated well bottoms; micrographs pretreatment (t=0 h), after 14 h and 40 h of treatment; FIG. 11
Experimental: Cell-exclusion patterning was carried out by a sequence of steps, as illustrated in FIG. 3. In Step A, complete medium was added to wells of a microtiter plate. The volume added was approximately 30 ul for 384-well plates or 75 ul for 96-well plates. In step B, a comb having guide pins and blocking pins was lowered into the microtiter plate and the blocking pins were locked into the desired wells and the guide pins into the corresponding guide holes. In step C, cells were introduced into the wells of the microtiter plate by adding a solution containing cells to the walls of the wells. The volume of the cell solution was approximately 20 ul for 384-well plates or 25-50 ul for 96-well plates. The cell density was 8000 cells per well and 30,000 cells per well for 384- and 96-well plates, respectively. In step D, the cells were allowed to settle and adhere to the well bottom inside a cell culture hood for about 45 min. The microplates were then placed inside a humidified incubator at 37° C. and 5% CO2 for 3-4 h to allow the cells to attach to the well bottom. In step E, the comb and the pins were removed from the wells. Drugs were then added, if necessary to carry out an assay.
Cell patterns were imaged by bright-field or fluorescent microscopy or by using Corning Epic® label-free high-resolution optical resonance detection system (available from Corning Incorporated, Corning, N.Y.). […]

## C=C1[C@@H](C)[C@H]2[C@H](Cc3ccccc3)NC(=O)[C@]23[C@H](OC(C)=O)/C=C/[C@@](C)(O)C(=O)[C@@H](C)C/C=C/[C@H]3[C@@H]1O [CytoD, Cytochalasin D]
  growth of cells into the cell exclusion area over time: cells do not grow into the cell exclusion area over time
